Target: T1, Axl (Homo sapiens, UniProt P30530)
T1 construct: Cells: Hela cells; endogenous in cells; host or cells: HeLa cells
T1 sequence (P30530 26-894): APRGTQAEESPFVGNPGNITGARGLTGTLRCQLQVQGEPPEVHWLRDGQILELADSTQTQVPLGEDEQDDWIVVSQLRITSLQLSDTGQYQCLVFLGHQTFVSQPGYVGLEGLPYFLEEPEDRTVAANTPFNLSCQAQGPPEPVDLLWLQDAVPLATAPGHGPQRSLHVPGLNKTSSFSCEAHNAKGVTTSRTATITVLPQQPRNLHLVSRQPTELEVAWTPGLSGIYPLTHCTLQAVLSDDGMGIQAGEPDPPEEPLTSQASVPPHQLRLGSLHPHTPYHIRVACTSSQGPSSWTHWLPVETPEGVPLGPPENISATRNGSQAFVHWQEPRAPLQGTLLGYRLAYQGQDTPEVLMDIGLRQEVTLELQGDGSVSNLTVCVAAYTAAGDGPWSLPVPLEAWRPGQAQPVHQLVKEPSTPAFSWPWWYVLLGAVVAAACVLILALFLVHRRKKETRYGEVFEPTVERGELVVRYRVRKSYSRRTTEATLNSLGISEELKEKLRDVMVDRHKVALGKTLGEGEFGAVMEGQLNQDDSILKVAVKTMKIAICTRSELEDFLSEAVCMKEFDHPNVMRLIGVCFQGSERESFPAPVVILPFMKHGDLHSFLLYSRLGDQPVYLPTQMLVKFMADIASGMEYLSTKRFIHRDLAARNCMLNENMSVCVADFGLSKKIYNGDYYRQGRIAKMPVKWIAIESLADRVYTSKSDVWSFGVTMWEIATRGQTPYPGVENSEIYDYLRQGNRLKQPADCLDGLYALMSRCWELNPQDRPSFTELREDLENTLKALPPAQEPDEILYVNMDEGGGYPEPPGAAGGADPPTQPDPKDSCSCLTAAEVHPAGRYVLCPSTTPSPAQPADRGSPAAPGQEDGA
Assay: Phospho-Akt in-cell Western assay (inhibition of Axl activity)
Type: cell-based
Conditions: Hela cells; 1 hr pre-treatment; stimulation by Axl-antibody cross-linking; phospho-Akt chemiluminescence normalized to relative cell number
Protocol: The compounds of the invention were tested in the following assay for their ability to inhibit Axl activity.
Phospho-Akt in-Cell Western Assay
• Cell culture plate: 96 well assay plate (Corning 3610), white, clear bottom, tissue-culture treated. • Cells: Hela cells. • Starvation medium: For Axl stimulation: 0.5% FCS (fetal calf serum) in DMEM, plus Axl/Fc (extracellular domain of AXL fused to immunoglobulin Fc region) (R&D, 154-AL) 500 ng/mL. • For EGF (epidermal growth factor) stimulation: 0.5% FCS in DMEM (Dulbecco's modified Eagles medium). • Poly-L-Lysine 0.01% solution (the working solution): […], dilute In PBS (phosphate buffered saline). • Axl antibody cross-linking: • 1st: Mouse anti-Axl (R&D, MAB154). • 2nd: Biotin-SP-conjugated AffiniPure goat anti-mouse IgG (H+ L) (Jackson ImmunoResearch #115-065-003). • Fixing buffer: 4% formaldehyde in PBS. • Wash buffer: 0.1% TritonX-100 in PBS. • Quenching buffer: 3% H2O2, 0.1% Azide in wash buffer, Azide and hydrogen peroxide (H2O2) are added fresh. • Blocking buffer: 5% BSA in TBST (tris buffered saline plus 0.1% Tween 20). • Primary antibody: Rabbit anti-human Phospho-Akt antibody (Cell Signaling 9271): 1×250 diluted in blocking buffer. • Secondary antibody: HRP (horse radish peroxidase)-conjugated Goat anti-Rabbit secondary, stock solution: Jackson ImmunoResearch (Goat anti-Rabbit HRP, #111-035-144) 1:1 diluted in glycerol, store at −20° C. The working solution: 1×2000 dilution of stock in blocking buffer. • Chemiluminescent working solution (Pierce, 37030): SuperSignal ELISA (enzyme linked immunosorbant assay) Pico Chemiluminescent substrate. • Crystal Violet solution: Stock: 2.5% Crystal violet in methanol, filtered and kept at ambient temperature. The working solution: dilute the stock 1:20 with PBS immediately before use. • 10% SDS: working solution: 5% SDS (sodium dodecylsulfate), diluted in PBS Methods: Day 1:
A 96 well TC (tissue culture treated) plate was coated with 10 μg/mL poly-L-Lysine at 37° C. for 30 min, washed twice with PBS, and air-dried for 5 minutes before cells were added. Hela cells were seeded at 10,000 cells/well and the cells were starved in 100 μL starvation medium containing Axl/Fc for 24 hrs.
The cells were pre-treated with test compounds by adding 100 μL of 2× test compound to the starvation medium on the cells. The cells were incubated at 37° C. for 1 hr before stimulation.
The cells were stimulated by Axl-antibody cross-linking as follows: A 5× 1st/2nd Axl antibody mixture was made (37.5 μg/mL 1st/100 μg/mL 2nd) in starvation medium and nutated at 4° C. with thorough mixing for 1-2 hours for clustering. The resulting mix was warmed to 37° C. 50 μL of 5× Axl 1st/2nd of antibody cluster was added to the cells and the cells were incubated at 37° C. for 5 min.
After 5 minutes stimulation, the plate was flicked to remove medium and the plate was tapped onto paper towels. Formaldehyde (4.0% in PBS, 100 μL) was added to fix the cells and the cells were incubated at ambient temperature for 20 min without shaking.
The cells were washed with a plate washer buffer to remove the formaldehyde solution. The plate was flicked to removed excess wash buffer and tapped onto paper towels. Quenching buffer (100 μL) was added to each well and the cells were incubated at ambient temperature for 20 minutes without shaking.
The cells were washed with a plate washer buffer to remove the quenching buffer. Blocking buffer (100 μL) was added and the cells were incubated at ambient temperature for at least an hour with gentle shaking.
The cells were washed with a plate washer buffer and diluted primary antibody (50 μL) was added to each well (blocking buffer was added to the negative control wells instead). The plates were incubated overnight at 4° C. with gentle shaking.
The wash buffer was removed, diluted secondary antibody (100 μL) was added, and the cells were incubated at ambient temperature for 1 hour with gentle shaking. […]

| IC50 [nM] | Compound |
| --- | --- |
| < 1000 | Nc1nc(Nc2ccc(OCCN3CCCC3)cc2)nn1-c1ncc2c(n1)CCCCCC2 [Compound 1, 1-(5,6,7,8,9,10-hexahydrocycloocta[d]pyrimidin-2-yl)-N^3-(4-(2-(pyrrolidin-1-yl)ethoxy)phenyl)-1H-1,2,4-triazole-3,5-diamine] |
| < 1000 | CN1CCN(c2ccc(Nc3nc(N)n(-c4ncc5c(n4)CCCCCC5)n3)cc2)CC1 [Compound 2, 1-(5,6,7,8,9,10-hexahydrocycloocta[d]pyrimidin-2-yl)-N^3-(4-(4-methylpiperazin-1-yl)phenyl)-1H-1,2,4-triazole-3,5-diamine] |
| < 1000 | Nc1nc(Nc2ccc(N3CCN(C4CC5CCC4C5)CC3)cc2)nn1-c1ncc2c(n1)CCCCCC2 (stereo not drawn) [Compound 3, N^3-(4-(4-(bicyclo[2.2.1]heptan-2-yl)piperazin-1-yl)phenyl)-1-(5,6,7,8,9,10-hexahydrocycloocta[d]pyrimidin-2-yl)-1H-1,2,4-triazole-3,5-diamine] |
| < 1000 | CN1CCCN(c2ccc(Nc3nc(N)n(-c4ncc5c(n4)CCCCCC5)n3)cc2F)CC1 [Compound 4, N^3-(3-fluoro-4-(4-methyl-1,4-diazepan-1-yl)phenyl)-1-(5,6,7,8,9,10-hexahydrocycloocta[d]pyrimidin-2-yl)-1H-1,2,4-triazole-3,5-diamine] |
| < 1000 | Nc1nc(Nc2ccc(N3CCN(C4CCCCC4)CC3)cc2)nn1-c1ncc2c(n1)CCCCCC2 [Compound 5, N^3-(4-(4-cyclohexylpiperazin-1-yl)phenyl)-1-(5,6,7,8,9,10-hexahydrocycloocta[d]pyrimidin-2-yl)-1H-1,2,4-triazole-3,5-diamine] |
| 1000 to 10000 | CN(C)[C@@H]1CCN(c2ccc(Nc3nc(N)n(-c4ncc5c(n4)CCCCCC5)n3)cc2)C1 [Compound 6, (R)—N^3-(4-(3-(dimethylamino)pyrrolidin-1-yl)phenyl)-1-(5,6,7,8,9,10-hexahydrocycloocta[d]pyrimidin-2-yl)-1H-1,2,4-triazole-3,5-diamine] |
| 1000 to 10000 | CN(C)[C@H]1CCN(c2ccc(Nc3nc(N)n(-c4ncc5c(n4)CCCCCC5)n3)cc2)C1 [Compound 7, (S)—N^3-(4-(3-(dimethylamino)pyrrolidin-1-yl)phenyl)-1-(5,6,7,8,9,10-hexahydrocycloocta[d]pyrimidin-2-yl)-1H-1,2,4-triazole-3,5-diamine] |
| < 1000 | Nc1nc(Nc2ccc(N3CCN(C4CCCCC4)CC3)c(Cl)c2)nn1-c1ncc2c(n1)CCCCCC2 [Compound 8, N^3-(3-chloro-4-(4-cyclohexylpiperazin-1-yl)phenyl)-1-(5,6,7,8,9,10-hexahydrocycloocta[d]pyrimidin-2-yl)-1H-1,2,4-triazole-3,5-diamine] |
| 1000 to 10000 | CN1CCN(Cc2ccc(Nc3nc(N)n(-c4ncc5c(n4)CCCCCC5)n3)cc2)CC1 [Compound 9, 1-(5,6,7,8,9,10-hexahydrocycloocta[d]pyrimidin-2-yl)-N^3-(4-((4-methylpiperazin-1-yl)methyl)phenyl)-1H-1,2,4-triazole-3,5-diamine] |
| < 1000 | Nc1nc(Nc2ccc(N3CCC(N4CCCC4)CC3)c(F)c2)nn1-c1ncc2c(n1)CCCCCC2 [Compound 10, N^3-(3-fluoro-4-(4-(pyrrolidin-1-yl)piperidin-1-yl)phenyl)-1-(5,6,7,8,9,10-hexahydrocycloocta[d]pyrimidin-2-yl)-1H-1,2,4-triazole-3,5-diamine] |
| > 20000 | CN1CCc2ccc(Nc3nc(N)n(-c4ncc5c(n4)CCCCCC5)n3)cc2C1 [Compound 12, 1-(5,6,7,8,9,10-hexahydrocycloocta[d]pyrimidin-2-yl)-N^3-(2-methyl-1,2,3,4-tetrahydroisoquinolin-7-yl)-1H-1,2,4-triazole-3,5-diamine] |
| > 20000 | Nc1nc(Nc2ccc(N3CCN(c4ccc(F)cc4)CC3)cc2)nn1-c1ncc2c(n1)CCCCCC2 [Compound 13, N^3-(4-(4-(4-fluorophenyl)piperazin-1-yl)phenyl)-1-(5,6,7,8,9,10-hexahydrocycloocta[d]pyrimidin-2-yl)-1H-1,2,4-triazole-3,5-diamine] |
| 1000 to 10000 | CCOC(=O)N1CCN(c2ccc(Nc3nc(N)n(-c4ncc5c(n4)CCCCCC5)n3)cc2F)CC1 [Compound 14, ethyl 4-(4-(5-amino-1-(5,6,7,8,9,10-hexahydrocycloocta[d]pyrimidin-2-yl)-1H-1,2,4-triazol-3-ylamino)-2-fluorophenyl)piperazine-1-carboxylate] |
| < 1000 | CC(C)(COc1ccc(Nc2nc(N)n(-c3ncc4c(n3)CCCCCC4)n2)cc1)N1CCCC1 [Compound 15, 1-(5,6,7,8,9,10-hexahydrocycloocta[d]pyrimidin-2-yl)-N^3-(4-(2-methyl-2-(pyrrolidin-1-yl)propoxy)phenyl)-1H-1,2,4-triazole-3,5-diamine] |
| < 1000 | Nc1nc(Nc2ccc(N3CCN(C4CCCCC4)CC3)cc2)nn1-c1cc2c(nn1)CCCCCC2 [Compound 16, N^3-(4-(4-cyclohexylpiperazin-1-yl)phenyl)-1-(5,6,7,8,9,10-hexahydrocycloocta[c]pyridazin-3-yl)-1H-1,2,4-triazole-3,5-diamine] |
| < 1000 | Nc1nc(Nc2ccc(N3CCC(N4CCCC4)CC3)c(F)c2)nn1-c1cc2c(nn1)CCCCCC2 [Compound 17, N^3-(3-fluoro-4-(4-(pyrrolidin-1-yl)piperidin-1-yl)phenyl)-1-(5,6,7,8,9,10-hexahydrocycloocta[c]pyridazin-3-yl)-1H-1,2,4-triazole-3,5-diamine] |
| < 1000 | Nc1nc(Nc2ccc(OCCN3CCCC3)cc2)nn1-c1cc2c(nn1)CCCCCC2 [Compound 18, 1-(5,6,7,8,9,10-hexahydrocycloocta[c]pyridazin-3-yl)-N^3-(4-(2-(pyrrolidin-1-yl)ethoxy)phenyl)-1H-1,2,4-triazole-3,5-diamine] |
| 1000 to 10000 | CS(=O)(=O)N1CCN(c2ccc(Nc3nc(N)n(-c4ncc5c(n4)CCCCCC5)n3)cc2F)CC1 [Compound 19, N^3-(3-fluoro-4-(4-(methylsulfonyl)piperazin-1-yl)phenyl)-1-(5,6,7,8,9,10-hexahydrocycloocta[d]pyrimidin-2-yl)-1H-1,2,4-triazole-3,5-diamine] |
